Measured values: patent publication US12502386B2, “Nitrogen-containing heterocyclic compound and use thereof” (SHANGHAI SHIJIANG BIOTECHNOLOGY CO., LTD, priority 2022, dated 2025)

Key:
786-O = assay: CellTiter-Glo cell viability, tumor cell line 786-O; format: cell-based; details: Homo sapiens, 786-0, 72 h; clear cell renal cell adenocarcinoma cell; 3 days of culture; read-out: inhibitory effect on 786-O (IC50)
Experimental: (§1) Cell viability was detected using the Promega CellTiter-Glo kit, cell viability was determined by directly measuring intracellular ATP content. In the experiment, the IC50 value of the compounds prepared in the Examples of the present invention on various tumor cell lines was detected.
(§2) Each tumor cell was cultured in relevant medium. After cell passage, the gradient diluted compounds prepared in the Examples of the present invention was added. After 3 days of culture, the relevant IC50 (50% inhibiting concentration) was measured. The name, source and culture conditions of each tumor cell line were as follows:
Cell line 786-0 (ATCC, No. CRL-1932) was cultured in 10% fetal bovine serum-containing RPMI164B medium (+P/S).

SW48 = assay: CellTiter-Glo cell viability, tumor cell line SW48; format: cell-based; details: SW48, 72 h; human colon adenocarcinoma cell; 3 days of culture; read-out: inhibitory effect on SW48 (IC50)
Experimental: as §1, §2
Cell line SW48 (ATCC, No. CCL-231) was cultured in 10% fetal bovine serum-containing Leibovitz's L-15 medium (+P/S).

Con-NCI-H82 cell = assay: CellTiter-Glo cell viability, Con-NCI-H82 cell (empty-vector control); format: cell-based, human; details: Homo sapiens, NCI-H82, NCI-H82 transfected with empty virus vector (control), intracellular ATP, read-out: inhibitory effect on Con-NCI-H82 (IC50)
NB-1 = assay: CellTiter-Glo cell viability, brain tumor cell line NB-1; format: cell-based; details: Homo sapiens, NB1, 72 h; brain neuroblastoma cell; 3 days of culture; read-out: inhibitory effect on NB-1 (IC50)
Experimental: (§3) Cell viability was detected using the Promega CellTiter-Glo kit, cell viability was determined by directly measuring intracellular ATP content. In the experiment, the IC50 value of the compounds prepared in the Examples of the present invention on various brain tumor cell lines was detected.
as §2, with “follows: […]” for “follows:”

SF-126 = assay: CellTiter-Glo cell viability, tumor cell line SF-126; format: cell-based; details: SF-126, 72 h, read-out: inhibitory effect on SF-126 (IC50); human glioblastoma multiforme cell; 3 days of culture
Experimental: as §1, §2
Cell line SF126 (JCRB, No. IFO50286) was cultured in 10% fetal bovine serum-containing EMEM medium (+P/S).
as §3

GB-1 = assay: CellTiter-Glo cell viability, tumor cell line GB-1; format: cell-based; details: GB-1, 72 h; human brain glioblastoma cell; 3 days of culture; read-out: inhibitory effect on GB-1 (IC50)
Experimental: as §1, §2
Cell line GB-1 (JCRB, No. IFO50489) was cultured in 10% fetal bovine serum-containing DMEM medium (+P/S).
as §3

Kelly = assay: CellTiter-Glo cell viability, brain tumor cell line Kelly; format: cell-based; details: Homo sapiens, 72 h, brain neuroblastoma cell, 3 days of culture, read-out: inhibitory effect on Kelly (IC50)
Experimental: as §3, §2
Cell line Kelly (ECACC, No. 92110411) was cultured in 10% fetal bovine serum and 2 mM glutamine-containing RPMI1640 medium.

sh-DNMT1 NCI-H82 cell = assay: CellTiter-Glo cell viability, sh-DNMT1 NCI-H82 cell (DNMT1 knocked down); format: cell-based, human; details: Homo sapiens, NCI-H82, NCI-H82 with DNMT1 knocked down by shRNA, intracellular ATP, read-out: inhibitory effect on sh-DNMT1 NCI-H82 (IC50)
D341 Med = assay: CellTiter-Glo cell viability, brain tumor cell line D341 Med; format: cell-based; details: Homo sapiens, 72 h, cerebellar medulloblastoma cell, 3 days of culture, read-out: inhibitory effect on D341 Med (IC50)
Experimental: as §3, §2
Cell line D341 Med (ATCC, No. HTB-187) was cultured in 20% fetal bovine serum-containing EMEM medium (+P/S).

MDA-MB-453 = assay: CellTiter-Glo cell viability, tumor cell line MDA-MB-453; format: cell-based; details: Homo sapiens, MDA-MB-453, 72 h; breast cancer cell; 3 days of culture; read-out: inhibitory effect on MDA-MB-453 (IC50)
Experimental: as §1
as §2, with “follows: […]” for “follows:”

NCI-H82 = assay: CellTiter-Glo cell viability, tumor cell line NCI-H82; format: cell-based; details: NCI-H82, 72 h; human small cell lung cancer cell; 3 days of culture; read-out: inhibitory effect on NCI-H82 (IC50)
Experimental: as §1, §2
Cell line NCI-H82 (ATCC, No. HTB-175) was cultured in 10% fetal bovine serum-containing RPMI1640 medium (+P/S).

ov-NNMT NCI-H82 cell = assay: CellTiter-Glo cell viability, ov-NNMT NCI-H82 cell (NNMT overexpressed); format: cell-based, human; details: Homo sapiens, NCI-H82, NCI-H82 overexpressing NNMT protein, intracellular ATP, read-out: inhibitory effect on OV-NNMT NCI-H82 (IC50)
CFPAC-1 = assay: CellTiter-Glo cell viability, tumor cell line CFPAC-1; format: cell-based; details: CFPAC-1, 72 h; human pancreatic cancer cell; 3 days of culture; read-out: inhibitory effect on CFPAC-1 (IC50)
Experimental: as §1, §2
Cell line CFPAC-1 (ATCC, No. CRL-1918) was cultured in 10% fetal bovine serum-containing IMDM medium (+P/S).

G-401 = assay: CellTiter-Glo cell viability, tumor cell line G-401; format: cell-based; details: G-401, 72 h; human renal carcinoma Wilms cell; 3 days of culture; read-out: inhibitory effect on G-401 (IC50)
Experimental: as §1, §2
Cell line G-401 (ATCC, No. CRL-1441) was cultured in 10% fetal bovine serum-containing McCoy's 5a medium (+P/S).

| SMILES | IC50 (786-O) [µM] | IC50 (SW48) [µM] | IC50 (Con-NCI-H82 cell) [µM] | IC50 (NB-1) [µM] | IC50 (SF-126) [µM] | IC50 (GB-1) [µM] | IC50 (Kelly) [µM] | IC50 (sh-DNMT1 NCI-H82 cell) [µM] | IC50 (D341 Med) [µM] | IC50 (MDA-MB-453) [µM] | IC50 (NCI-H82) [µM] | IC50 (ov-NNMT NCI-H82 cell) [µM] | IC50 (CFPAC-1) [µM] | IC50 (G-401) [µM] |
| --- | --- | --- | --- | --- | --- | --- | --- | --- | --- | --- | --- | --- | --- | --- |
| CCCOc1c(OC)ccc2c1C(C1CCCC1)N1CCc3cc4c(cc3C1=C2)OCO4 (centres unmarked) [AB35512] | 15.3 | 2.02 | 0.62 | 1.56 | 18.1 | 23.5 | 4.23 | 2.32 | 2.01 | 1.56 | 0.62 | 2.42 | 17.3 | 1.33 |
| COc1ccc2c(c1OCCCc1ccccc1)C(C(Cl)(Cl)Cl)N1CCc3cc4c(cc3C1=C2)OCO4 (centres unmarked) [AB35525] | 14 | 2.34 | 0.51 | 1.88 | 19.8 | > 30 | 3.12 | 3.15 | 0.96 | 1.68 | 0.51 | 2.02 | 16.2 | 0.98 |
| C=CCOc1c(OC)ccc2c1C(C(Cl)(Cl)Cl)N1CCc3cc4c(cc3C1=C2)OCO4 (centres unmarked) [AB35534] | 14.3 | 2.45 | 1.32 | 1.58 | 19 | 20.2 | 2.09 | 3.84 | 3.12 | 1.88 | 1.32 | 3.96 | 16.9 | 2.03 |
| CCCOc1c(OC)ccc2c1CN1CCc3cc4c(cc3C1=C2)OCO4 [AB35536] | 15.5 | 1.27 | 0.52 | 3.11 | 23.4 | 16.5 | 2.56 | 2.56 | 1.06 | 0.94 | 0.52 | 2.24 | 9.96 | 1.39 |
| COc1ccc2c(c1OCCCCl)CN1CCc3cc4c(cc3C1=C2)OCO4 [AB35543] | 9.88 | 1.56 | 0.55 | 2.36 | 15.9 | 13.4 | 1.54 | 3.12 | 1.68 | 0.88 | 0.55 | 2.68 | 10.2 | 1.06 |
| COc1ccc2c(c1OCCCF)CN1CCc3cc4c(cc3C1=C2)OCO4 [AB35590] | 13.9 | 2.15 | 1.52 | 1.99 | 17.7 | 22.5 | 3.16 | 4.04 | 2.78 | 1.98 | 1.52 | 4.68 | 15.3 | 2.66 |
| C1=C2c3cc4c(cc3CCN2C(C2CCCC2)c2c1ccc1c2OCO1)OCO4 (centres unmarked) [AB36423] | 22.3 | 2.54 | 1.85 | 2.98 | > 30 | 16.1 | 3.12 | 4.98 | 1.55 | 1.66 | 1.85 | 5.11 | 14.3 | 2.32 |
| [2H]C1c2c(ccc(OC)c2OCCC)C=C2c3cc4c(cc3CCN21)OCO4 (centres unmarked) [AB36437] | 20.2 | 2.55 | 0.65 | 2.58 | 16.8 | 19.9 | 1.89 | 3.12 | 2.12 | 1.34 | 0.65 | 2.73 | 14.4 | 0.98 |
| COc1ccc2c(c1OC)C(C1CCC1)N1CCc3cc4c(cc3C1=C2)OCO4 (centres unmarked) [AB36447] | > 30 | 1.96 | 2.02 | 2.04 | > 30 | 24.6 | 1.98 | 7.12 | 2.75 | 2.12 | 2.02 | 4.98 | 20.1 | 2.68 |
| [2H]C([2H])([2H])Oc1c(OC)ccc2c1C(C1CCCC1)N1CCc3cc4c(cc3C1=C2)OCO4 (centres unmarked) [AB36501] | 13.1 | 1.16 | 0.97 | 2.06 | 15.5 | 13.3 | 1.38 | 5.12 | 0.76 | 1.32 | 0.97 | 4.33 | 9.88 | 0.88 |
